The source made the active and inactive calls. No cut-off for these calls is given here.
Target: Glycogen synthase kinase-3 beta (Homo sapiens) (UniProt P49841)
Assay: Inhibition of GSK3-beta

Chain of Glycogen synthase kinase-3 beta (Homo sapiens) (P49841 whole entry, looked up): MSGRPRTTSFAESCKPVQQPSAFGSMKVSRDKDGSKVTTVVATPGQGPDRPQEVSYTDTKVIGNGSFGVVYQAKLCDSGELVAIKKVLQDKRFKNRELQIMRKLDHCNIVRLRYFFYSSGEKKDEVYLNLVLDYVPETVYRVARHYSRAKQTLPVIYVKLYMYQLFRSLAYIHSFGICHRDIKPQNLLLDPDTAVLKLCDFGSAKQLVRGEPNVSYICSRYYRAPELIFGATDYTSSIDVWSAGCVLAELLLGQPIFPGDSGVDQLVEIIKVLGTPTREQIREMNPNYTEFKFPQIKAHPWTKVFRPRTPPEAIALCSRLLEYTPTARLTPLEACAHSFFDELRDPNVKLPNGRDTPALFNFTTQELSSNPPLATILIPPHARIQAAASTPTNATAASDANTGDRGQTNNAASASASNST

Row | SMILES | Activity
1 | NC1=NC(=O)/C(=C2\CCNC(=O)c3[nH]c4c(Br)csc4c32)N1 | Active

Target: Receptor-type tyrosine-protein kinase FLT3 (Homo sapiens) (UniProt P36888)
Assay: Inhibition of FLT3

Chain of Receptor-type tyrosine-protein kinase FLT3 (Homo sapiens) (P36888 whole entry): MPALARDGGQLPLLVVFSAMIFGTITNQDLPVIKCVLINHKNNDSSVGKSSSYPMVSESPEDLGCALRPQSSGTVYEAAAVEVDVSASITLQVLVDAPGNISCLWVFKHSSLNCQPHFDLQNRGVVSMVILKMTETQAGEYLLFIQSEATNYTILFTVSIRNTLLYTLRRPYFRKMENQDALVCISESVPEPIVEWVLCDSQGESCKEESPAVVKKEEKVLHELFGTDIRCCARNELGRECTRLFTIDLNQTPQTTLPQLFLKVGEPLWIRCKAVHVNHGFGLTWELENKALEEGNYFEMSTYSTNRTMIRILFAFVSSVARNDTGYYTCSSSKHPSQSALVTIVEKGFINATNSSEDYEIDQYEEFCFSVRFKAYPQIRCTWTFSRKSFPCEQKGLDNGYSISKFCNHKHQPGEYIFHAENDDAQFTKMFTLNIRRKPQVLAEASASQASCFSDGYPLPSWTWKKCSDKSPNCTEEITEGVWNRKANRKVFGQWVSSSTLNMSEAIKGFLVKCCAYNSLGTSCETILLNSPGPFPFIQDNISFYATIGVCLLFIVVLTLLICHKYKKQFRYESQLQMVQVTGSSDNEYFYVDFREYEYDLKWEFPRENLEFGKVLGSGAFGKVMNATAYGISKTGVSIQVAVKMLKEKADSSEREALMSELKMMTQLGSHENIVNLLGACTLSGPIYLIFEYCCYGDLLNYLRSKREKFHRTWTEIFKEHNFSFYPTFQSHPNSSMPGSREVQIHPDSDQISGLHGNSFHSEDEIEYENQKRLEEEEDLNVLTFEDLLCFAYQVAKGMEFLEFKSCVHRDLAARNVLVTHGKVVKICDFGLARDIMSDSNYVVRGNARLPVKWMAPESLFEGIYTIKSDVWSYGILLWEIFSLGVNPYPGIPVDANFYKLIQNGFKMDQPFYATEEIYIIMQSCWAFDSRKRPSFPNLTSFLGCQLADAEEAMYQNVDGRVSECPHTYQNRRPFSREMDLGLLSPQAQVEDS

Row | SMILES | Activity
2 | NC1=NC(=O)/C(=C2\CCNC(=O)c3[nH]c4c(Br)csc4c32)N1 | Active

Target: Serine/threonine-protein kinase SIK1 (Homo sapiens) (UniProt P57059)
Assay: Inhibition of SIK

Chain of Serine/threonine-protein kinase SIK1 (Homo sapiens) (P57059 whole entry): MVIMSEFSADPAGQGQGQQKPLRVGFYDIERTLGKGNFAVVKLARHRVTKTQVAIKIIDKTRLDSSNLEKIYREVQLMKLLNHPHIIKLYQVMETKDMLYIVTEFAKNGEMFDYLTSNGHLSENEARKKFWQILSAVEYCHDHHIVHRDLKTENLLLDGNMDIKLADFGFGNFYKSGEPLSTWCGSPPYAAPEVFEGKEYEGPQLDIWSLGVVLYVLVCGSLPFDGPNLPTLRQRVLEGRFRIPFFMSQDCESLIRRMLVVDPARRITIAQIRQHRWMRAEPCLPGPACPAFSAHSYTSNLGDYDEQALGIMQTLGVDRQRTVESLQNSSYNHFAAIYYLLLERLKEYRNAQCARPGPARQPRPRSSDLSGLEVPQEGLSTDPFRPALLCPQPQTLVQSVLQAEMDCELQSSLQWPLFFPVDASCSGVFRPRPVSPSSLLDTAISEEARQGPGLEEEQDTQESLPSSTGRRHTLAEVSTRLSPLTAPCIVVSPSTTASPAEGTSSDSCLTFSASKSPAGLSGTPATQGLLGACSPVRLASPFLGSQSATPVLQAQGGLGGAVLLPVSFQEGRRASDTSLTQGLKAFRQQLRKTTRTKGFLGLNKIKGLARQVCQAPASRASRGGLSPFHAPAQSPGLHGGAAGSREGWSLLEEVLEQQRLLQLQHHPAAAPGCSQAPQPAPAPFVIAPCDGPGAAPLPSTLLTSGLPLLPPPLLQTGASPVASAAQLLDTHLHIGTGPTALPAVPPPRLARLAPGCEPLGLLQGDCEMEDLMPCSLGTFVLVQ

Row | SMILES | Activity
3 | NC1=NC(=O)/C(=C2\CCNC(=O)c3[nH]c4c(Br)csc4c32)N1 | Active

Target: T1, NUAK family SNF1-like kinase 1 (Homo sapiens) (UniProt O60285)
T1 sequence (whole entry): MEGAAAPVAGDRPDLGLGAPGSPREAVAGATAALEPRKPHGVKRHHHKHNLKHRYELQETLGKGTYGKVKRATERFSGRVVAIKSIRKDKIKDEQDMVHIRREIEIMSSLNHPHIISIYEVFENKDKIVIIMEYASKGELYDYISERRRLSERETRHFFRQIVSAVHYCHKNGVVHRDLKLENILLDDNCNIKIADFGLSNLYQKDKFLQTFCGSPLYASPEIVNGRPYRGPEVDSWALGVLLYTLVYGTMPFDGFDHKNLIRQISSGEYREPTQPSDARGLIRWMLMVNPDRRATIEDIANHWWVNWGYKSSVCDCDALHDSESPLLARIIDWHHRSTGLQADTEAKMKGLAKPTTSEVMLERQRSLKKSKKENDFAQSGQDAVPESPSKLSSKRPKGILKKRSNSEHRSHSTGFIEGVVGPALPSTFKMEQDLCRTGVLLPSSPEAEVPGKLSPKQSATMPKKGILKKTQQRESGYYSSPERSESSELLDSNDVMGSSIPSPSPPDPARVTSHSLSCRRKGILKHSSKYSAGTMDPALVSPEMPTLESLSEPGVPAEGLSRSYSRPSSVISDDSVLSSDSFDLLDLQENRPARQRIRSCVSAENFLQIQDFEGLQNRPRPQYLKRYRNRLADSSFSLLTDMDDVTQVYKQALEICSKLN
Assay: Inhibition of ARK5

Row | SMILES | Activity
4 | NC1=NC(=O)/C(=C2\CCNC(=O)c3[nH]c4c(Br)csc4c32)N1 | Active

Target: T2, Serine/threonine-protein kinase Chk1 (Homo sapiens, UniProt O14757)
T2 sequence (O14757 whole entry): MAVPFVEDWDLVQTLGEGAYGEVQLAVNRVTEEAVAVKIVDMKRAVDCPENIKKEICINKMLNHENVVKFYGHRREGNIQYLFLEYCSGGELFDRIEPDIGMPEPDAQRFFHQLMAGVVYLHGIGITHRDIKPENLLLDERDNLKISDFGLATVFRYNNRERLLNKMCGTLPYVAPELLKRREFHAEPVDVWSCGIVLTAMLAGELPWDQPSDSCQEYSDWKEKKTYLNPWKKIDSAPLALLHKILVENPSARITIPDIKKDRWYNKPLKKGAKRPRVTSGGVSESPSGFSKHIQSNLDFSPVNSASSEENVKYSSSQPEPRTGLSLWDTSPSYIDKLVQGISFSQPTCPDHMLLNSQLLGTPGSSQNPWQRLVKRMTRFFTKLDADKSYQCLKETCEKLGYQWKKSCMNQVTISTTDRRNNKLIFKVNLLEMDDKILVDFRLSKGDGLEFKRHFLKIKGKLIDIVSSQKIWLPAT
Assay: Inhibition of CHK1

Row | SMILES | IC50
5 | NC1=NC(=O)/C(=C2\CCNC(=O)c3[nH]c4cc(Cl)sc4c32)N1 | 0.3 µM
6 | NC1=NC(=O)/C(=C2\CCNC(=O)c3[nH]c(Br)c(Br)c32)N1 | 0.1 µM
7 | NC1=NC(=O)/C(=C2\CCNC(=O)c3[nH]c4ccsc4c32)N1 | 0.15 µM
8 | NC1=NC(=O)/C(=C2\CCNC(=O)c3[nH]c4c(Br)csc4c32)S1 | 0.19 µM
9 | NC1=NC(=O)/C(=C2\CCNC(=O)c3[nH]c4c(sc5ccccc54)c32)N1 | 0.23 µM
10 | NC1=NC(=O)/C(=C2\CCNC(=O)c3[nH]c4cc(Br)sc4c32)N1 | 0.46 µM
11 | Cn1c2c(c3sccc31)/C(=C1\NC(N)=NC1=O)CCNC2=O | > 10 µM
12 | NC1=NC(=O)/C(=C2\CCNC(=O)c3[nH]c(Br)cc32)N1 [HYMENIALDISINE] | 1.9 µM
13 | COc1ccc(Cn2c3c(c4scc(Br)c42)/C(=C2\NC(N)=NC2=O)CCNC3=O)cc1 | > 10 µM
14 | O=C(O)CNC1=NC(=O)/C(=C2\CCNC(=O)c3[nH]c4c(Br)csc4c32)N1 | 0.26 µM
15 | NC1=N/C(=C2/CCNC(=O)c3[nH]ccc32)C(=O)N1 [DEBROMOHYMENIALDISINE] | 0.33 µM
16 | NC1=NC(=O)/C(=C2\CCNC(=O)c3[nH]c4ccsc4c32)S1 | 0.18 µM
17 | O=C1N=C(NCCO)N/C1=C1/CCNC(=O)c2[nH]c3c(Br)csc3c21 | 0.28 µM
18 | NC1=NC(=O)/C(=C2\CCNC(=O)c3[nH]c4c(Br)csc4c32)N1 | 0.014 µM
19 | NC1=NC(=O)/C(=C2\CCNC(=O)c3[nH]c4c(-c5ccccc5)csc4c32)N1 | 1.3 µM
20 | NC1=NC(=O)/C(=C2\CCNC(=O)c3[nH]c4c(-c5ccccc5)csc4c32)S1 | > 10 µM
21 | NC1=NC(=O)/C(=C2\CCNC(=O)c3[nH]c4c(Cl)c(Cl)sc4c32)N1 | 0.89 µM
22 | NC1=NC(=O)/C(=C2\CCNC(=O)c3[nH]c4c(sc5ccccc54)c32)S1 | > 10 µM
23 | N#Cc1csc2c3c([nH]c12)C(=O)NCC/C3=C1/NC(N)=NC1=O | 0.029 µM
24 | O=C1N=C(NCCO)N/C1=C1/CCNC(=O)c2[nH]c3ccsc3c21 | 1.7 µM
25 | NC1=NC(=O)/C(=C2\CCNC(=O)c3[nH]c4c(Cl)csc4c32)N1 | 0.14 µM
26 | NC(=O)c1csc2c3c([nH]c12)C(=O)NCC/C3=C1/NC(N)=NC1=O | 0.15 µM
27 | Nc1nc(C2=C3C(=Nc4ccccc43)C(=O)NCC2)c(O)[nH]1 | 0.47 µM

— ChEMBL document CHEMBL1143297, “Synthesis and CHK1 inhibitory potency of Hymenialdisine analogues” (Bioorg Med Chem Lett, 2009)
